Literature values in US8425924B2, “Propylene compositions containing a pyrethroid and products made therefrom” (ExxonMobil Chemical Patents Inc., priority 2009, dated 2013).

Details: thermal stability of the pyrethroid

SMILES | stable up to a temperature
CC1(C)[C@H](C(=O)O[C@H](C#N)c2cccc(Oc3ccccc3)c2)[C@@H]1C=C(Br)Br [deltamethrin] | up to 320 °C
C=CCC1=C(C)C(OC(=O)[C@@H]2[C@@H](C=C(C)C)C2(C)C)CC1=O (some centres unmarked) [allethrin I] | more than 400 °C
